Key:
waterhemp = assay: Test C postemergence; format: in vivo, Amaranthus rudis
Summary of the method: (§1)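 Pre: seeded into loam/sand, sprayed same time. Post: plants in peat moss–vermiculite mix with starter nutrients and dolomitic limestone, treated at 1- to 4-leaf stage (2 to 18 cm). Formulation: non-phytotoxic solvent blend plus surfactant.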

barnyardgrass [1] = assay: Test A postemergence; format: in vivo, Echinochloa crus-galli; details: 0 to 100 scale (0 no effect, 100 complete control), approx. 10 d
Summary of the method: (§2)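 Loam/sand soil mix; compound in non-phytotoxic solvent + surfactant. Pre: directed soil spray right after planting seed. Post: potted plants 2–10 cm, 1–2 leaf stage, sprayed with same formulation.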

oilseed rape = assay: Test C postemergence; format: in vivo, Brassica napus
Summary of the method: as §1

foxtail, giant [2] = assay: Test A preemergence; format: in vivo, Setaria faberii; details: 0 to 100 scale (0 no effect, 100 complete control)
Summary of the method: as §2

johnsongrass = assay: Test C postemergence; format: in vivo, Sorghum halepense
Summary of the method: as §1

blackgrass = assay: Test C postemergence; format: in vivo, Alopecurus myosuroides
Summary of the method: as §1

pigweed = assay: Test A postemergence; format: in vivo, Amaranthus retroflexus; details: 0 to 100 scale (0 no effect, 100 complete control), approx. 10 d
Summary of the method: as §2

velvetleaf = assay: Test C postemergence; format: in vivo, Abutilon theophrasti
Summary of the method: as §1

wheat = assay: Test A postemergence; format: in vivo, Triticum aestivum; details: 0 to 100 scale (0 no effect, 100 complete control), approx. 10 d
Summary of the method: as §2

barnyardgrass [3] = assay: Test C postemergence; format: in vivo, Echinochloa crus-galli
Summary of the method: as §1

nutsedge, yellow = assay: Test C postemergence; format: in vivo, Cyperus esculentus
Summary of the method: as §1

galium = assay: Test C postemergence; format: in vivo, Galium aparine
Summary of the method: as §1

sedge, umbrella = assay: Test B flooded paddy test; format: in vivo, Cyperus difformis; details: 250 g ai/ha, applied to paddy water at 2-leaf stage, visual rating after 13 to 15 d, scale 0 (no effect) to 100 (complete control)
Summary of the method: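 Pots were flooded to 3 cm above the soil at treatment, and compounds were applied directly into the paddy water. That depth was held throughout. After 13 to 15 d in a greenhouse, plants were rated visually against untreated controls.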

ryegrass, Italian = assay: Test C postemergence; format: in vivo, Lolium multiflorum
Summary of the method: as §1

crabgrass, large = assay: Test C postemergence; format: in vivo, Digitaria sanguinalis
Summary of the method: as §1

barnyardgrass [4] = assay: Test A preemergence; format: in vivo, Echinochloa crus-galli; details: 0 to 100 scale (0 no effect, 100 complete control)
Summary of the method: as §2

foxtail, giant [5] = assay: Test A postemergence; format: in vivo, Setaria faberii; details: 0 to 100 scale (0 no effect, 100 complete control), approx. 10 d
Summary of the method: as §2

morningglory = assay: Test C postemergence; format: in vivo, Ipomoea coccinea
Summary of the method: as §1

kochia = assay: Test C postemergence; format: in vivo, Kochia scoparia
Summary of the method: as §1

corn = assay: Test C postemergence; format: in vivo, Zea mays
Summary of the method: as §1

## Fc1ccc(-c2nc(OCC(F)(F)F)n(Cc3ccnc(C(F)(F)F)c3)n2)cc1 [Compound 30]
waterhemp; 31 g ai/ha
  Plant response rating (scale of 0 to 100 where 0 is no effect and 100 is complete control): 95
waterhemp; 62 g ai/ha
  Plant response rating (scale of 0 to 100 where 0 is no effect and 100 is complete control): 98
waterhemp; 125 g ai/ha
  Plant response rating (scale of 0 to 100 where 0 is no effect and 100 is complete control): 95
waterhemp; 250 g ai/ha
  Plant response rating (scale of 0 to 100 where 0 is no effect and 100 is complete control): 98
Barnyardgrass [1]; 125 g ai/ha
  Plant response rating, Barnyardgrass: 80
Barnyardgrass [1]; 500 g ai/ha
  Plant response rating, Barnyardgrass: 90
Oilseed rape; Oilsee Rape, 250 g ai/ha
  Plant response rating (scale of 0 to 100 where 0 is no effect and 100 is complete control): 95
Oilseed rape; Oilseed Rape, 31 g ai/ha
  Plant response rating (scale of 0 to 100 where 0 is no effect and 100 is complete control): 35
Oilseed rape; Oilseed Rape, 62 g ai/ha
  Plant response rating (scale of 0 to 100 where 0 is no effect and 100 is complete control): 80
Oilseed rape; Oilseed Rape, 125 g ai/ha
  Plant response rating (scale of 0 to 100 where 0 is no effect and 100 is complete control): 95
foxtail, giant [2]; 125 g ai/ha
  Plant response rating, Foxtail, Giant: 100
foxtail, giant [2]; 500 g ai/ha, approx. 10 d
  Plant response rating, Foxtail, Giant: 100
johnsongrass; 31 g ai/ha
  Plant response rating (scale of 0 to 100 where 0 is no effect and 100 is complete control): 30
johnsongrass; 62 g ai/ha
  Plant response rating (scale of 0 to 100 where 0 is no effect and 100 is complete control): 100
johnsongrass; 125 g ai/ha
  Plant response rating (scale of 0 to 100 where 0 is no effect and 100 is complete control): 35
johnsongrass; 250 g ai/ha
  Plant response rating (scale of 0 to 100 where 0 is no effect and 100 is complete control): 30
blackgrass; 31 g ai/ha
  Plant response rating (scale of 0 to 100 where 0 is no effect and 100 is complete control): 25
blackgrass; 62 g ai/ha
  Plant response rating (scale of 0 to 100 where 0 is no effect and 100 is complete control): 30
blackgrass; 125 g ai/ha
  Plant response rating (scale of 0 to 100 where 0 is no effect and 100 is complete control): 40
blackgrass; 250 g ai/ha
  Plant response rating (scale of 0 to 100 where 0 is no effect and 100 is complete control): 60
pigweed; 125 g ai/ha
  Plant response rating, Pigweed: 100
pigweed; 500 g ai/ha
  Plant response rating, Pigweed: 100
velvetleaf; 31 g ai/ha
  Plant response rating (scale of 0 to 100 where 0 is no effect and 100 is complete control): 55
velvetleaf; 62 g ai/ha
  Plant response rating (scale of 0 to 100 where 0 is no effect and 100 is complete control): 60
velvetleaf; 125 g ai/ha
  Plant response rating (scale of 0 to 100 where 0 is no effect and 100 is complete control): 80
velvetleaf; 250 g ai/ha
  Plant response rating (scale of 0 to 100 where 0 is no effect and 100 is complete control): 90
wheat; 125 g ai/ha
  Plant response rating, Wheat: 10
wheat; 500 g ai/ha
  Plant response rating, Wheat: 30
Barnyardgrass [3]; 31 g ai/ha
  Plant response rating (scale of 0 to 100 where 0 is no effect and 100 is complete control): 25
Barnyardgrass [3]; 62 g ai/ha
  Plant response rating (scale of 0 to 100 where 0 is no effect and 100 is complete control): 20
Barnyardgrass [3]; 125 g ai/ha
  Plant response rating (scale of 0 to 100 where 0 is no effect and 100 is complete control): 40
Barnyardgrass [3]; 250 g ai/ha
  Plant response rating (scale of 0 to 100 where 0 is no effect and 100 is complete control): 85
nutsedge, yellow; 31 g ai/ha
  Plant response rating (scale of 0 to 100 where 0 is no effect and 100 is complete control): 5
nutsedge, yellow; 62 g ai/ha
  Plant response rating (scale of 0 to 100 where 0 is no effect and 100 is complete control): 5
nutsedge, yellow; 125 g ai/ha
  Plant response rating (scale of 0 to 100 where 0 is no effect and 100 is complete control): 10
nutsedge, yellow; 250 g ai/ha
  Plant response rating (scale of 0 to 100 where 0 is no effect and 100 is complete control): 15
galium; 31 g ai/ha
  Plant response rating (scale of 0 to 100 where 0 is no effect and 100 is complete control): 80
galium; 62 g ai/ha
  Plant response rating (scale of 0 to 100 where 0 is no effect and 100 is complete control): 80
galium; 125 g ai/ha
  Plant response rating (scale of 0 to 100 where 0 is no effect and 100 is complete control): 90
galium; 250 g ai/ha
  Plant response rating (scale of 0 to 100 where 0 is no effect and 100 is complete control): 90
sedge, umbrella
  Plant response rating, Sedge, Umbrella, Flood: 90
ryegrass, Italian; 31 g ai/ha
  Plant response rating (scale of 0 to 100 where 0 is no effect and 100 is complete control): 20
ryegrass, Italian; 62 g ai/ha
  Plant response rating (scale of 0 to 100 where 0 is no effect and 100 is complete control): 25
ryegrass, Italian; 125 g ai/ha
  Plant response rating (scale of 0 to 100 where 0 is no effect and 100 is complete control): 30
ryegrass, Italian; 250 g ai/ha
  Plant response rating (scale of 0 to 100 where 0 is no effect and 100 is complete control): 50
crabgrass, large; 31 g ai/ha
  Plant response rating (scale of 0 to 100 where 0 is no effect and 100 is complete control): 20
crabgrass, large; 62 g ai/ha
  Plant response rating (scale of 0 to 100 where 0 is no effect and 100 is complete control): 15
crabgrass, large; 125 g ai/ha
  Plant response rating (scale of 0 to 100 where 0 is no effect and 100 is complete control): 35
crabgrass, large; 250 g ai/ha
  Plant response rating (scale of 0 to 100 where 0 is no effect and 100 is complete control): 60
Barnyardgrass [4]; 125 g ai/ha
  Plant response rating, Barnyardgrass: 90
Barnyardgrass [4]; 500 g ai/ha, approx. 10 d
  Plant response rating, Barnyardgrass: 100
foxtail, giant [5]; 125 g ai/ha
  Plant response rating, Foxtail, Giant: 80
foxtail, giant [5]; 500 g ai/ha
  Plant response rating, Foxtail, Giant: 90
morningglory; 31 g ai/ha
  Plant response rating (scale of 0 to 100 where 0 is no effect and 100 is complete control): 80
morningglory; 62 g ai/ha
  Plant response rating (scale of 0 to 100 where 0 is no effect and 100 is complete control): 70
morningglory; 125 g ai/ha
  Plant response rating (scale of 0 to 100 where 0 is no effect and 100 is complete control): 80
morningglory; 250 g ai/ha
  Plant response rating (scale of 0 to 100 where 0 is no effect and 100 is complete control): 100
kochia; 31 g ai/ha
  Plant response rating (scale of 0 to 100 where 0 is no effect and 100 is complete control): 100
kochia; 62 g ai/ha
  Plant response rating (scale of 0 to 100 where 0 is no effect and 100 is complete control): 100
kochia; 125 g ai/ha
  Plant response rating (scale of 0 to 100 where 0 is no effect and 100 is complete control): 100
kochia; 250 g ai/ha
  Plant response rating (scale of 0 to 100 where 0 is no effect and 100 is complete control): 100
corn; 31 g ai/ha
  Plant response rating (scale of 0 to 100 where 0 is no effect and 100 is complete control): 15
corn; 62 g ai/ha
  Plant response rating (scale of 0 to 100 where 0 is no effect and 100 is complete control): 10
corn; 125 g ai/ha
  Plant response rating (scale of 0 to 100 where 0 is no effect and 100 is complete control): 25
corn; 250 g ai/ha
  Plant response rating (scale of 0 to 100 where 0 is no effect and 100 is complete control): 20
